These results are taken from ChEMBL document CHEMBL1148264, “Evaluation of series of isobenzofuranone dimers as PKCalpha ligands: implication for the distance between the two ligand binding sites” (Bioorg Med Chem Lett, 2004).

As a reminder, the inhibition is the change of the read-out against control, counted positive when it falls. The low end stands for little suppression, the high end for strong suppression.

The first test deals with Protein kinase C alpha type (Homo sapiens) (UniProt P17252). Briefly: Displacement of [3H]PDBu from protein kinase C alpha at 100 uM; Range 40 to 60. A general note: Displacement assays read how much labelled ligand stays bound in the presence of the test substance.
The compound `CC(=O)OC[C@@]1(CO)OC(=O)c2c(OCCCCCCCCCCOc3cccc4c3C(=O)O[C@]4(CO)COC(C)=O)cccc21` returned an inhibition of 45%.

With `O=C(CCCCCCCCCCCCCCC(=O)OC[C@@]1(CO)OC(=O)c2c(OCc3ccccc3)cccc21)CC[C@@]1(CO)OC(=O)c2c(OCc3ccccc3)cccc21`, the inhibition amounted to 54%.

Turning to `O=C(CCCCCCCCC(=O)OC[C@@]1(CO)OC(=O)c2c(OCc3ccccc3)cccc21)CC[C@@]1(CO)OC(=O)c2c(OCc3ccccc3)cccc21`, the inhibition is 41%.

Turning to `CC(=O)OC[C@@]1(CO)OC(=O)c2c(OCCCCCCCCCOc3cccc4c3C(=O)O[C@]4(CO)COC(C)=O)cccc21`, the inhibition amounted to 42%.

`CC(=O)OC[C@@]1(CO)OC(=O)c2c(OCCCCCCCCCCCOc3cccc4c3C(=O)O[C@]4(CO)COC(C)=O)cccc21`: the inhibition worked out at 60%.

The target is the same in another test. Briefly: Displacement of [3H]PDBu from protein kinase C alpha at 100 uM; Range 80 to 100.
Compound `CC(=O)OC[C@@]1(CO)OC(=O)c2c(OCCCCCCCCCCCCCCCCOc3cccc4c3C(=O)O[C@]4(CO)COC(C)=O)cccc21` came in with an inhibition of 91%.

For `CC(=O)OC[C@@]1(CO)OC(=O)c2c(OCCCCCCCCCCCCCCOc3cccc4c3C(=O)O[C@]4(CO)COC(C)=O)cccc21`, the inhibition stood at 90%.

Regarding `CC(=O)OC[C@@]1(CO)OC(=O)c2c(OCCCCCCCCCCCCCCCOc3cccc4c3C(=O)O[C@]4(CO)COC(C)=O)cccc21`, the inhibition was determined as 92%.

`CCCCCCCCCCCC(=O)OC[C@@]1(CO)OC(=O)c2c(OCc3ccccc3)cccc21` displayed an inhibition of 90%.

Consider `CC(=O)OC[C@@]1(CO)OC(=O)c2c(OCCCCCCCCCCCCCOc3cccc4c3C(=O)O[C@]4(CO)COC(C)=O)cccc21`, for which the inhibition came to 85%.

For the next test the target is unchanged. The test can be described thus: Displacement of [3H]PDBu from protein kinase C alpha at 100 uM; Range 60 to 80.
Regarding `CCCCCCCCCCCCOc1cccc2c1C(=O)O[C@]2(CO)COC(C)=O`, the inhibition is 70%.

As to `O=C(CCCCCCCCCCC(=O)OC[C@@]1(CO)OC(=O)c2c(OCc3ccccc3)cccc21)CC[C@@]1(CO)OC(=O)c2c(OCc3ccccc3)cccc21`, the inhibition stood at 70%.

Compound `O=C(CCCCCCCCCCCCC(=O)OC[C@@]1(CO)OC(=O)c2c(OCc3ccccc3)cccc21)CC[C@@]1(CO)OC(=O)c2c(OCc3ccccc3)cccc21` registered an inhibition of 70%.

On to `CC(=O)OC[C@@]1(CO)OC(=O)c2c(OCCCCCCCCCCCCOc3cccc4c3C(=O)O[C@]4(CO)COC(C)=O)cccc21`, for which the inhibition stood at 70%.

The next test shares this target. Briefly: Displacement of [3H]PDBu from protein kinase C alpha at 100 uM; Range 2 to 40.
`CC(=O)OC[C@@]1(CO)OC(=O)c2c(OCc3ccccc3)cccc21` had an inhibition of 30%.

Another test shares this target. Briefly: Displacement of [3H]PDBu from protein kinase C alpha at 100 uM; Range 0 to 20.
In turn, `O=C(CC[C@@]1(CO)OC(=O)c2c(OCc3ccccc3)cccc21)c1cccc(C(=O)OC[C@@]2(CO)OC(=O)c3c(OCc4ccccc4)cccc32)c1` registered an inhibition of 4%.

Take `O=C(CCCCCCC(=O)OC[C@@]1(CO)OC(=O)c2c(OCc3ccccc3)cccc21)CC[C@@]1(CO)OC(=O)c2c(OCc3ccccc3)cccc21`: the inhibition is 19%.

In the case of `O=C(CCCCC(=O)OC[C@@]1(CO)OC(=O)c2c(OCc3ccccc3)cccc21)CC[C@@]1(CO)OC(=O)c2c(OCc3ccccc3)cccc21`, the inhibition worked out at 18%.

In turn, `O=C(CCCCCCCCCCCCCCCCCCC(=O)OC[C@@]1(CO)OC(=O)c2c(OCc3ccccc3)cccc21)CC[C@@]1(CO)OC(=O)c2c(OCc3ccccc3)cccc21` came in with an inhibition of 10%.

`O=C(CC[C@@]1(CO)OC(=O)c2c(OCc3ccccc3)cccc21)c1ccccc1C(=O)OC[C@@]1(CO)OC(=O)c2c(OCc3ccccc3)cccc21`: the inhibition stood at 4%.

`CC(=O)OC[C@@]1(CO)OC(=O)c2c(OCCCCCCCCCCCCCCCCCCCCCCCCOc3cccc4c3C(=O)O[C@]4(CO)COC(C)=O)cccc21`: the inhibition amounted to 19%.

As for `O=C(CC[C@@]1(CO)OC(=O)c2c(OCc3ccccc3)cccc21)c1ccc(C(=O)OC[C@@]2(CO)OC(=O)c3c(OCc4ccccc4)cccc32)cc1`, the inhibition is 2%.

A further test has the same target. Briefly: Displacement of [3H]PDBu from protein kinase C alpha at 100 uM; Range 20 to 30.
Consider `O=C(CCCCCCCCCCCCCCCCC(=O)OC[C@@]1(CO)OC(=O)c2c(OCc3ccccc3)cccc21)CC[C@@]1(CO)OC(=O)c2c(OCc3ccccc3)cccc21`, for which the inhibition was found to be 30%.

The next test shares this target. Briefly: Displacement of [3H]PDBu from protein kinase C alpha at 100 uM; Range 20 to 40.
In the case of `CC(=O)OC[C@@]1(CO)OC(=O)c2c(OCCCCCCCCCCCCCCCCCCCCCCOc3cccc4c3C(=O)O[C@]4(CO)COC(C)=O)cccc21`, the inhibition came out at 25%.
